How the values were obtained:
BIM gene = BIM gene expression in Ras-induced senescent IMR90 cells; assay type: cell-based, human; details: senescent (OIS) IMR90 cells; 48 hours
Protocol: An oncogenic Ras was introduced into young cells (within 1 month of continuous culture) of IMR90 cells to induce senescent cells (OIS).
An oncogenic Ras was introduced into young cells (within 1 month of continuous culture) of IMR90 cells to induce senescent cells (OIS). The senescent cells were transfected with an HIF-2α-specific siRNA (SEQ ID NO: 9) to knock down HIF-2α. After that, the expression of the BIM gene, which is an apoptosis-inducing gene, was analyzed (FIG. 26).

HIF-2α = HIF-2α protein (Western blot) and mRNA expression in IMR90 cells; assay type: cell-based, human
Source text: As a result, it was observed that the HIF-2α protein decreased in the nutlin 3b-treated group and the BI-D1870-treated group (upper diagram and lower diagram in FIG. 22).
An oncogenic Ras was introduced into young cells (within 1 month of continuous culture) of IMR90 cells to induce senescent cells (OIS). […] It is known that ubiquitination is induced by phosphorylation in the vicinity of a ubiquitination site (Hagai et al., 2012). The consensus sequences (K/R-K/R-x-x-S/T) for phosphorylation by Chk1 located at the N-terminus of HIF-2α were conserved, and these were named Motif1 (including Ser12 residues) and Motif2 (including Ser19 residues) (FIG. 40, SEQ ID NOs: 77 to 81).

PGAM-Chk1 binding = molecular target: T1, PGAM-Chk1 binding (Homo sapiens, UniProt O14757+P18669); experiment: PGAM-Chk1 binding by anti-Chk1 immunoprecipitation and anti-PGAM Western blotting in Ras-induced senescent IMR90 cells; assay type: cell-based; details: 20 μM or 40 μM for 48 hours, then MG132 6 hours
T1 construct: endogenous in cells; host or cells: IMR90 human primary fibroblasts made senescent by retroviral oncogenic Ras
T1 sequence (P18669 2-254 limits assumed): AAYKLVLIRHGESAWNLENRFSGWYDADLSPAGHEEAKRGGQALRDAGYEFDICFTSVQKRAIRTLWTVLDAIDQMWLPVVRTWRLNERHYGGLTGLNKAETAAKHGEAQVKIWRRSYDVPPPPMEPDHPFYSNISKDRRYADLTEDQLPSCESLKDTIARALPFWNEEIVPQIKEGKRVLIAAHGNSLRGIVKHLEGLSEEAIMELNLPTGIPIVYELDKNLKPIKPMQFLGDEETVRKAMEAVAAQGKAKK
T1 sequence (O14757 1-476): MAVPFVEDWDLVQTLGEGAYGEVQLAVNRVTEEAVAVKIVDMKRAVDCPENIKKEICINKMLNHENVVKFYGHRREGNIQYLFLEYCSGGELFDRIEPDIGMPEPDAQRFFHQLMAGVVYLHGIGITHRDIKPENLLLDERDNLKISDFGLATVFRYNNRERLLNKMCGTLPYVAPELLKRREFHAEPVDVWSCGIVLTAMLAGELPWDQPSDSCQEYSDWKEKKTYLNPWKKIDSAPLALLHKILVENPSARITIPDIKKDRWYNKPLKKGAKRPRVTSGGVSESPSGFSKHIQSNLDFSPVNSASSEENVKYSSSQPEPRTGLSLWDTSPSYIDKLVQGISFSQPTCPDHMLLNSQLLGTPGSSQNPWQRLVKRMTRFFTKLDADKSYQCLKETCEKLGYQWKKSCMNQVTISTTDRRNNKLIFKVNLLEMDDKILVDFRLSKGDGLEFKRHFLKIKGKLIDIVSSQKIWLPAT
Protocol: Human primary fibroblasts, IMR90 cells, were obtained from the JCRB Cell Bank. An oncogenic Ras mutation was retrovirally introduced into young cells (within 1 month of continuous culture) of the IMR90 cells to induce cellular senescence. […] After that, these cells were treated with MG132 for 6 hours, and cell lysates were prepared. The obtained cell lysates were immunoprecipitated with an anti-Chk1 antibody. The resulting immunoprecipitate was used for Western blotting with an anti-PGAM antibody to evaluate PGAM-Chk1 binding.
Next, in the same manner as above, IMR90 cells were used to prepare stress-induced senescent cells by introducing an oncogenic mutated Ras gene. The senescent cells were transfected with an RSK1 siRNA (SEQ ID NO: 7) or a control to knock down RSK1. The resulting cells were collected, and proteins were extracted. The resulting protein extract was immunoprecipitated with an anti-Chk1 antibody. The resulting immunoprecipitate was used for Western blotting with an anti-PGAM antibody to evaluate PGAM-Chk1 binding.

glycolytic metabolism = experiment: Glycolytic metabolism (glucose consumption, lactate production) in etoposide-induced senescent IMR90 cells; assay type: cell-based, human; details: 20 μM or 40 μM for 48 hours
Protocol: Next, young cells (within 1 month of continuous culture) of the IMR90 cells were treated with 100 μM etoposide for 48 hours to acquire senescent cells. […] After the nutlin treatment, the medium was collected, and glucose consumption was evaluated and lactate production was measured. The lactate level is calculated as a value (μmol/mg/h) obtained by measuring the amount of lactate secreted into the medium per hour (μmol/h) and correcting the same by the total cell protein (mg) and is expressed as a value relative to the actual value on day 0. The glucose consumption is calculated as a value (μmol/mg/h) obtained by measuring the amount of glucose decreased from the medium per hour (μmol/h) and correcting the same by the total cell protein (mg) and is expressed as a value relative to the actual value on day 0. Glucose and lactate were measured by using a Glucose assay kit (BioVision) (upper diagram in FIG. 8) and a Lactate assay kit (BioVision) (lower diagram in FIG. 8), respectively.

COc1ccc(C2=N[C@H](c3ccc(Cl)cc3)[C@H](c3ccc(Cl)cc3)N2C(=O)N2CCNC(=O)C2)c(OC(C)C)c1 [nutlin 3b]
expression of the apoptosis-inducing gene BIM (BIM gene): increased | HIF-2α protein expression (HIF-2α; senescent (OIS) IMR90 cells): suppressed | influence on HIF-2α mRNA (HIF-2α; senescent (OIS) IMR90 cells): relatively small | HIF-2α protein (HIF-2α; young and senescent cells, different concentrations for 96 hours): decreased | PGAM-Chk1 binding (interaction) (PGAM-Chk1 binding): inhibit PGAM-Chk1 interaction to the same extent | glucose consumption (glycolytic metabolism): suppressed in a dose-dependent manner | lactate production (glycolytic metabolism): suppressed in a dose-dependent manner
